# Measurements published in BindingDB's records for patent US20250109139 (Shanghaitech University, 2025).
# Biological target: D(2) dopamine receptor (Homo sapiens, UniProt P14416)
# Test: Radioligand Competition Binding Assay
# Protocol: A 10 cm culture dish was used for transfection with […] of dopamine D2 receptors and 40 μL of polyethylenimine (PEI hereafter). […] A vacuum pump was used to suck off the culture medium, 3 mL of lysis buffer was added to each culture dish, and the cells were placed in a 4° C. cold room for 10 minutes. After the cells were detached, the cells were transferred to a 15 mL centrifuge tube and centrifuged at 1500 rpm for 5 minutes at 4° C., and the supernatant was discarded. The cell pellet was transferred to a tissue homogenizer, and 3 mL of lysis buffer was added and fully ground until the cells were broken. Then, cell suspension was equally aliquoted into several EP tubes, centrifuged at 12000 rpm for 5 minutes at 4° C., and the supernatant was discarded. […] First, a standard binding buffer was added to the cell membrane component containing the dopamine D2 receptors, and the cell membrane was disrupted and resuspended with an electric tissue homogenizer. 30 μL of membrane protein suspension was added to each well of a 96-well plate. […] Next, 30 μL of [3H]-Methylspiperone was added to each well of the 96-well plate. […] The machine readout value reflected the amount of [3H]-Methylspiperone bound on the membrane, and after further data processing, the affinity Ki values of different compounds for the dopamine D2 receptors were obtained.
# Sequence of D(2) dopamine receptor (P14416 whole entry): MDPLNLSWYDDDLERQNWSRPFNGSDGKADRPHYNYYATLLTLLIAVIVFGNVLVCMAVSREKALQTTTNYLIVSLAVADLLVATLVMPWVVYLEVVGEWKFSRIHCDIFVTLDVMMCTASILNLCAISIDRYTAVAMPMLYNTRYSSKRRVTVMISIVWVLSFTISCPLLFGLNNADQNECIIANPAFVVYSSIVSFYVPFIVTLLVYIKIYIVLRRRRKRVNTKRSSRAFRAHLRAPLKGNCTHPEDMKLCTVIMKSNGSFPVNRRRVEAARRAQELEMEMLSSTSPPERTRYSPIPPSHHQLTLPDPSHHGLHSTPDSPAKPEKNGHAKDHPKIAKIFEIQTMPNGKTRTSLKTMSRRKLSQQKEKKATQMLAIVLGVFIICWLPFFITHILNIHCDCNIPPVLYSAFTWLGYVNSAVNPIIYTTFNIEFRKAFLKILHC
smiles,measurement,value
"CCOc1cccc2c3c(oc12)CN(CCCCc1ccc2ccc(=O)[nH]c2c1)CC3 [US20250109139, Compound I-A25]",Ki,38 nM
